US11576866B2, “Gastric residence systems for sustained delivery of adamantane-class drugs” (Lyndra Therapeutics, Inc., priority 2016, dated 2023)

Key:
[1] = cited from earlier work
[2] = dog, one compartment model; assumed input of the analysis; cited from earlier work
[3] = Thermal stability of memantine during hot melt processing; assay type: physicochemical; conditions: blended with polymer (20% drug, 2% P407, 20% Eudragit RS, PCL); up to 160° C. for up to 20 minutes
Experimental: The stability of memantine under conditions of hot melt processing was tested. The formulation used for hot melt processing was 20% drug, 0.5% SiO2, 0.5% alpha tocopherol, 2% P407, 20% Eudragit RS, with the balance of material made up of PCL.

[4] = Therapeutic plasma concentrations of memantine (literature); assay type: in vivo; conditions: conversion of 1 micromolar
Experimental: The maximum therapeutically relevant concentration of memantine is approximately 1 micromolar (Rammes et al., Curr. Neuropharmacol. 6(1): 55-78 (2008)), corresponding to a plasma level of about 180 ng/mL. A recommended therapeutic range is about 90 ng/mL to 150 ng/mL, while the laboratory alert value is 300 ng/mL (Hiemke et al., Pharmacopsychiatry 44:195 (2011)).

[5] = PCL/SGF partition coefficient; assay type: physicochemical; conditions: 5:1 PCL diol (MW 530):ethyl acetate vs FaSSGF
From the text: Partitioning behavior of an adamantane-class drug can be measured between a polycaprolactone phase (PCL phase) and a simulated gastric fluid phase (SGF phase), to give the partition coefficient PPCL-SGF between the two phases. Log PPCL-SGF can also be calculated. A 5:1 mixture of polycaprolactone diol (MW 530):ethyl acetate can be used as the PCL phase, and fasted-state simulated gastric fluid (FaSSGF) can be used as the SGF phase, such that PPCL-SGF=(concentration in polycaprolactone diol)/(concentration in FaSSGF)).
Partitioning of active pharmaceutical ingredient (API), such as an adamantane-class drug such as memantine, between the structural polymer, polycaprolactone (PCL), and fasted state simulated gastric fluid (FaSSGF) is of interest for predicting API release rate from PCL-based formulations. To measure the PCL-SGF partition coefficient of an API, a concentrated stock solution of API was added to a mixture of 1 mL FaSSGF and 1 mL of 5:1 PCL diol (MW 530):ethyl acetate. The sample was vortexed and centrifuged at 10000 rpm for 5 minutes. The SGF phase was analyzed by HPLC to measure drug concentration. The PCL phase was diluted in methanol prior to quantification on HPLC.

[6] = human; input parameter of simulation; cited from earlier work

- degradation during hot melt processing [3]: without significant degradation
- plasma level corresponding to maximum therapeutically relevant concentration [4]: about 180 ng/mL
- PCL/SGF Partition Coefficient [5]: 0.28
SMILES: CC12CC3CC(C)(C1)CC(N)(C3)C2 [memantine]
- laboratory alert value (plasma) ([1]; Hiemke et al. 2011): 300 ng/mL
- maximum therapeutically relevant concentration ([1]; Rammes et al. 2008): approximately 1 micromolar
- elimination rate constant (ke) [2]: 0.076 h⁻¹
- clearance (CL) [6]: 5.2 L/h
- mean volume of distribution [6]: 9 to 11 L/kg
- rate of absorption (Ka) [6]: 0.21 h⁻¹
